Where two headings read alike, the source gives them in different places.
Legend:
[1] = tested on: HL60 cells; assay: Flow cytometry subG1 peak (PI staining), HL60; format: cell-based, Human; conditions: 20 µM for 24 h
Experimental: (§1) Flow cytometric analysis (BD Accuri™ C6, BD Biosciences) was performed to evaluate cell cycle distribution by propidium iodide (PI) staining, and cell viability by using the PI dye exclusion assay as previously reported.
(§2) Figure 5 Analysis of apoptosis induction by IS20 and IS21 in leukemia, melanoma and NSCLC cells. […] (A-F) Reported images are representative of two independent experiments with similar results. HSP72/73 or α-Tubulin are shown as loading and transferring control. (G) Flow cytometric quantification of cells in the subG1 peak of cell cycle distribution by propidium iodide staining in HL60 cell line treated with IS20 or IS21 (20 μM for 24 h) and in M14, H1299 and MDA-MB-231 cell lines treated with IS20 or IS21 (20 μM for 72 h). Data are reported as mean ± SD of three independent experiments. p-values were calculated between control (Ctrl) and treated cells, * p < 0.05. (H) Flow cytometric quantification of cells in the subG1 peak by propidium iodide staining in M14 and H1299 cell lines treated with IS20 or IS21 (20 μM, 72 h) in presence or absence of the pan caspase inhibitor z-VAD (50 μM). p-values were calculated between treated control (Ctrl) cells, # p < 0.01, ## p < 0.001 or between cells treated with IS20 or IS21 alone or in combination with z-VAD, * p < 0.05, ** p < 0.005. (G-H) Data are reported as mean of two (H) or three (G) experiments ± SD.

[2] = Pharmacokinetics in mouse plasma (LC-MS/MS); format: in vivo, C57/Bl6 mice; conditions: mice, intraperitoneal; for Tmax: read-out: time of maximum plasma concentration after injection
Experimental: 184 In vivo experi ments. […]
186 30% PEG400 (Sigma-Al drich) and 60% NaCl. Mice were sacrificed starting from 15 min to 24 h
187 after injection. Blood samples were collected b y cardiac puncture, centri fuged at 3,000 g for 10 min
188 at 4 °C and the obtained plasma was stored at - 80 °C until the analysis performed b y liquid
189 chromatograph y tandem mass spectrometry (LC –MS/MS). Given that the two compounds were
190 singularl y administered to the animals for the pharmacokinetic studies, IS20 was used as internal
191 standard (IS) for IS21 and vice versa. Internal Standard Working Solutions (IS-WS) were prepared
192 by adding appropriate volumes of the stock solutions to 50 mL of 0.1% formic acid (Fluka, Milan,
193 Ital y) in methanol:acetonitrile (50:50, v/v, Sigma -Aldrich), in order to reach a final concentration of
194 50 ng/m L. The solutions were maintained at - 20°C.
195 LC-MS/MS Analysis. 40 µ L of mouse plasma were mixed with 160 µ L o f IS -WS. The mixture was
196 vortex mixed for 1 min and centrifuged at 12,000 g for 10 min at 4 °C. The supernatant was
197 collected and 8 µL were injected into the LC–MS/MS system. The HP LC equipment consists of a
198 Series 200 Micro-LC Pump and a Series 200 autosampler from Perkin Elm er (Norwalk, CT, USA).
199 A triple quadrupole mass spectrometer, AB-Sciex API2000 (Toronto, ON, Canada) was used for
200 detection. The anal yt es were anal yzed using a C18 phase Kinetex column (10 cm x 2.1 mm ID) fro m
201 Phenomenex (Torran ce, CA, USA) packed with core–shell particles of […]. The mobile phases
202 were (A) acetonitrile an d (B) water, both containing 0.1% formic acid, at a flow rate of 0.25 mL /
203 min and were entirel y transferred into the mass spectrometer source. Gradient elution was as
204 follows: increase of the organic phase from 60 to 80% in 0.8 min, then to 90% in the following 1.2
205 min and linearly to 100% in 2 min. Finally, after 3.9 min of 100% , the column was led to the
206 original conditions in 2.5 min to enable equilibration of the column.
207 Both anal ytes were detected in positive ionization with a capillar y voltage of 5500 V, nebulizer gas
208 (air) at 40 psi, turbo gas (nitrogen) at 70 psi and 400 °C. The other ion source parameters were set
209 as follows: curtain gas (CUR) 18 psi; collision gas (CAD) 6 psi; declustering potential (DP) 80 V,
210 entrance potential (EP) 1 2 V.
211 The quantitative data were acquired using Multi Reaction Monitoring (MRM) acquisition mode.
212 Two MRM transitions (precursor ion>fragment ion) were selected for the analytes. For IS20
214 eV while collision cell exit potential (CXP) was at 19 and 8 V for the two transitions, respectively.
216 and 51 eV while collision cell exit potential (CXP) was at 21 and 6 V for the two transitions,
218 The anal ytical method was validated according to FDA guidelines for bioanalytical method
219 validation. Linearity, recover y, matrix effect, precision, accurac y, limits of detection (LODs) and
220 lower limits of quantification (LLOQs) were evaluated.
221 Calibration standard solutions were prepared in blank plasma b y spiking 25 µL of a standard
222 mixture at appropriate concentration to 40 µL of plasma and by adding 140 µL of methanol:
223 acetonitrile (50:50, v/v). Calibrators were then treated similarly to the animal samples. The
224 calibration range was 5 to 7500 ng/ mL and the calibrators were prepared at nine level of
225 concentration. Precision, recover y and accurac y w ere ev aluated at three lev el of concentrations (25,
226 […]) and resulted within the acceptable limits.
227 The limit of detection (LOD) was defined as the lowest concentration with a signal- to-noise (S/N)
228 ratio greater than 3. The limit of quantification (LOQ) was defined as the concentration at which
229 both precision (RSD%) and accurac y were less than 20%. LOQ resulted to be 2 ng/ mL while LOD
231 The validated method was then successfully applied in measuring IS20 and IS21 following drug […]

[3] = tested on: HL60 cells; assay: Western blot of LC3B-I/LC3B-II (autophagy), HL60; format: cell-based, Human; conditions: 20 µM for 24 h
[4] = tested on: MDA-MB-231 cells; assay: Flow cytometry subG1 peak (PI staining), MDA-MB-231; format: cell-based, Human; conditions: 20 µM for 72 h
Experimental: as §1, §2

[5] = C57/Bl6, mouse, plasma, ip, 100 mg/kg

Structure (SMILES) | subG1 peak of cell cycle distribution, HL60 [1] | Tmax [2, 5] [h] | ratio of LC3B-II on LC3B-I, HL60 [3] | subG1 peak of cell cycle distribution, MDA-MB-231 [4] | Cmax ([2]; C57/Bl6, mouse, ip, 50 mg/kg, plasma) [µM] | AUC ([2]; C57/Bl6, mouse, ip, 50 mg/kg, plasma, read-out: mean AUCtot) [µM·h] | half-life ([2]; C57/Bl6, mouse, ip, 50 mg/kg, plasma, read-out: mean t½ (converted)) [min] | Tmax ([2]; C57/Bl6, mouse, plasma, ip, 50 mg/kg) [h] | mean total clearance ([2]; 50 mg/kg) [mL/min/kg]
CCCCOc1ccc(C2/C(=C(\O)c3ccc4c(c3)CC(C)O4)C(=O)C(=O)N2c2nnc(SCc3ccc(Cl)cc3)s2)cc1OCC (stereo not shown) [IS20] | presence of subG1 peak | 16 | Increased ratio | not evident | – | – | – | – | –
CCCCCOc1ccc(C2/C(=C(\O)c3ccc4c(c3)CC(C)O4)C(=O)C(=O)N2c2nnc(SCc3ccc(Cl)cc3)s2)cc1OCC (stereo not shown) [IS21] | presence of subG1 peak | 4 | Increased ratio | not evident | 4.1 | 40.9 | 660 | 2 | 26.3
